Literature values in patent US11065250B2, “Solid dosage forms of palbociclib” (PFIZER INC., priority 2015, dated 2021).
Like-named read-outs stand apart in the source and are kept apart here.

Key:
[1] = low pH (2.1-4.5)

solubility in words [1]: water soluble
pKa (pyridine nitrogen): ~4.1
pKa (secondary piperazine nitrogen): approximately 7.3
pKa (pyridine nitrogen) (listed as palbociclib): approximately 4.1
pKa (secondary piperazine nitrogen) (listed as palbociclib): ~7.3
Structure (SMILES): CC(=O)c1c(C)c2cnc(Nc3ccc(N4CCNCC4)cn3)nc2n(C2CCCC2)c1=O [Palbociclib, 6-acetyl-8-cyclopentyl-5-methyl-2-(5-piperazin-1-yl-pyridin-2-ylamino)-8H-pyrido[2,3-d]pyrimidin-7-one]
